From a melting point compilation (Tetko et al.) come the findings set out here.

Each structure is given as a SMILES string.

The melting point is the temperature of the solid-liquid transition.

In the case of `OC1CCc2cn[nH]c2C1` (stereo not given), the melting point fell in the range of 154 to 156 °C.
For `O=C(NC1CCCC1)c1ccccc1O`, the melting point was 75 to 77 °C.
The compound `CC(C)(C)C(=O)N1CSCC1C(=O)O` (stereo not given) came in with a melting point of 118 to 120 °C.
`O=[N+]([O-])c1c(Cl)ccc2scnc12` displayed a melting point of 132 to 134 °C.
To `NS(=O)(=O)c1ccc(C(=O)NCC(=O)O)cc1` belongs 192 to 194 °C.
To `Clc1ccnc2c(Br)cccc12` belongs 148 to 150 °C; to `Cc1ccc(Br)c2c1NC(=O)C2=O`, 239 to 241 °C.
In turn, `Cc1cccn2c(=O)cc(Cl)nc12` returned a melting point of 124 to 126 °C.
`COc1cc(Br)cc([N+](=O)[O-])c1` registered a melting point of 86 to 88 °C.
Then `COC(=O)c1c(S)nc(=O)[nH]c1C`, with 225 to 227 °C; and `O=C1C=CC(=O)N1c1ccccc1Sc1ccccc1`, with 51 to 53 °C; and `N#Cc1cccc(OCCBr)c1`, with 36 to 38 °C.
To `OCc1ccc(OCC(F)(F)F)cc1` belongs 64 to 66 °C; to `O=c1[nH]c(-c2ccncc2)cs1`, 303 to 305 °C; to `Nc1cc2c(cc1NC(=O)c1cccs1)OCCO2`, 178 to 180 °C.
The compound `Nc1ccc(-c2nc3cccc(Cl)c3s2)cc1` registered a melting point of 149 to 151 °C.
Compound `Sc1nnnn1CC1CCCO1` (stereo not given) returned a melting point of 28 to 30 °C.
On to `FC(F)(F)c1ccc2sc(Cl)nc2c1`, for which the melting point lay in the range of 57 to 59 °C.
`CN1CCc2nc(N)sc2C1` came in with a melting point of 168 to 170 °C.
In the case of `COC(=O)c1n[nH]c2ccccc12`, the melting point fell in the range of 159 to 161 °C.
`Nc1nc(-c2c[nH]c3ccccc23)cs1` registered a melting point of 167 to 169 °C.
Compound `Cc1nnnn1-c1ccc(F)c(N)c1` yielded a melting point of 156 to 158 °C.
Take `Nc1cnn(CC(=O)NC2CCCC2)c1`: the melting point fell in the range of 108 to 110 °C.
Compound `ClCc1nc(Cl)c2cnn(-c3ccccc3)c2n1` had a melting point of 112 to 114 °C.
`CCOc1ccc(NS(=O)(=O)c2ccc(C)c(N)c2)cc1` had a melting point of 116 to 118 °C.
`CC(C)C(NC(=O)c1ccc(Cl)cc1)C(=O)O` (stereo not given) registered a melting point of 197 to 199 °C.
For the compound `Cc1cccc2c1CN(C(=O)OC(C)(C)C)CCN2`, the melting point fell in the range of 95 to 97 °C.
`CC(C)CC(=O)Nc1ccc(Cl)c(C(=O)O)c1` gave a melting point of 174 to 176 °C.
Turning to `Cc1noc(-c2ccccc2N)n1`, the melting point was 120 to 122 °C.
On to `c1ccc(-c2c[nH]c(C3CCCNC3)n2)cc1` (stereo not given), for which the melting point lay within 93 to 95 °C.
`Cc1cc(Br)cc2cc(C#N)oc12` yielded a melting point of 139 to 141 °C.
The compound `Cn1ncc2c1CCCC2O` (stereo not given) had a melting point of 104 to 106 °C.
Then `O=C(O)c1cnc2cc3c(cc2c1O)OCCO3`, with 274 to 276 °C; and `CC(C)(C)NS(=O)(=O)c1cc(C(=O)O)ccc1Cl`, with 212 to 214 °C; and `Cc1cc2[nH]c(=O)c3ccccc3n2n1`, with 278 to 282 °C.
The compound `Cc1c[nH]c(=O)n1-c1cccc(C#N)c1` yielded a melting point of 189 to 191 °C.
In the case of `NC(=O)NCCCc1ccccc1`, the melting point is 137 to 139 °C.
To `O=C(O)CSc1nnnn1CC(F)(F)F` belongs 135 to 137 °C.
`CN(C(=O)c1ccc(N)cc1)C1CCOCC1` showed a melting point of 170 to 172 °C.
`CCC(=O)c1c(C)nn(CCS(C)(=O)=O)c1C` yielded a melting point of 154 to 156 °C.
To `CCOC(=O)c1ccn[nH]1` belongs 159 to 161 °C.
To `CN(C)Cc1nc(Cl)c2c(-c3ccccc3)csc2n1` belongs 114 to 116 °C; to `O=c1cc(O)nc(S)n1-c1ccc(Cl)cc1`, 188 to 190 °C; to `Clc1cncc(N2CCCC2)n1`, 53 to 55 °C.
To `O=C(O)c1csc(-c2ccc3c(c2)OCCO3)n1` belongs 199 to 201 °C.
`CN(C(=O)c1ccccc1C(=O)O)C1CCCCC1`: the melting point lay in the range of 144 to 146 °C.
In turn, `Cc1c(N)cc(C#N)cc1F` returned a melting point of 135 to 137 °C.
In turn, `COc1cccc(CC(C(=O)O)n2nnnc2C)c1` (stereo not given) showed a melting point of 125 to 127 °C.
To `CN(C)/C=C(/C#N)C(N)=O` belongs 166 to 168 °C; to `CC(Cl)C(=O)N1CCNC1=O` (stereo not given), 116 to 120 °C; to `Cc1nn(C)c2ncc(SC(=O)N(C)C)cc12`, 144 to 146 °C.
To `Cc1nnc(NC(=O)CCl)s1` belongs 230 to 232 °C; to `Cn1c(C=O)nc2ccccc21`, 119 to 122 °C; to `CC(Cl)C(=O)Nc1ccc2c(c1)OC1(CCCCC1)O2` (stereo not given), 98 to 100 °C.
With `O=c1cc(-c2ccccc2)c2ccccc2[nH]1`, the melting point was in the range of 263 to 265 °C.
To `Cc1cc(C)cc(-n2nc(C)cc2N)c1` belongs 95 to 97 °C; to `O=C(O)c1ccc2ncc(I)n2c1`, 254 to 256 °C.
Compound `O=C(CCl)Nc1cccc(CSc2ccccn2)c1` yielded a melting point of 90 to 92 °C.
The compound `O=C(NCCCN1CCCC1)OCC(F)(F)F` yielded a melting point of 36 to 38 °C.
Then `CCCC(C)S(N)(=O)=O` (stereo not given), with 48 to 50 °C; and `Cc1ccc(C(=O)Nc2cccc(CN)c2)cc1`, with 131 to 133 °C; and `CNc1cc(C(=O)OC)ccc1N`, with 79 to 81 °C.
Then `O=C(CBr)C12CC3CC(CC(C3)C1)C2`, with 59 to 61 °C; and `O=C(O)c1ccccc1COc1ccccc1`, with 126 to 128 °C.
Consider `O=Cc1cc(Br)c2c(c1)OCCO2`, for which the melting point is 99 to 101 °C.
As to `Nc1nsc(N2CCNCC2)n1`, the melting point is 193 to 195 °C.
The compound `Nc1ccc2oc(-c3ccccc3F)nc2c1` had a melting point of 166 to 168 °C.
`O=C(Cc1cccc(F)c1)c1cccc(F)c1`: the melting point was in the range of 49 to 51 °C.
`Oc1cc(Cl)cnc1Br` returned a melting point of 144 to 146 °C.
`CCOC(=O)c1sc2ncc(C(=O)OC)cc2c1N` came in with a melting point of 213 to 215 °C.
Then `O=C(O)c1nn(-c2ccccc2)c2c1CCC2`, with 179 to 181 °C.
`O=c1[nH]c(S)nc2ccc(F)cc12` returned a melting point of 345 to 347 °C.
To `CC(C)C(=O)N1CCCCC1C(=O)O` (stereo not given) belongs 123 to 125 °C.
In turn, `Cc1nnnn1C(Cc1ccccc1)C(=O)O` (stereo not given) displayed a melting point of 167 to 169 °C.
To `Nc1ccccc1N1C(=O)CCC1=O` belongs 231 to 233 °C; to `COc1ccccc1Nc1nnc(S)s1`, 182 to 184 °C.
Compound `C#CCNC(=O)Nc1ccccc1` registered a melting point of 133 to 135 °C.
To `CS(=O)(=O)Nc1ccc(Cl)c(N)c1` belongs 156 to 158 °C; to `COc1cc2cc(C(=O)O)[nH]c2cc1OC`, 199 to 201 °C.
The compound `Nc1cc(C(F)(F)F)ccc1NCc1ccccc1` registered a melting point of 70 to 75 °C.
To `Cc1ccc(S(=O)(=O)NCCC(=O)O)cc1C` belongs 126 to 128 °C.
Compound `Nc1ccnc2ncnn12` had a melting point of 264 to 266 °C.
In turn, `O=C(O)c1ccc(OCc2ccccc2)nc1` showed a melting point of 168 to 170 °C.
On to `CN(C)c1ccc(NCc2ccc3ccccc3n2)cc1`, for which the melting point lay in the range of 104 to 106 °C.
The compound `Nc1nnc(SCc2ccc(F)cc2)s1` came in with a melting point of 145 to 147 °C.
As to `O=[N+]([O-])c1ccc(COc2ccccc2)cc1`, the melting point lay in the range of 87 to 89 °C.
In turn, `O=C(O)CS(=O)(=O)c1ccc(Br)cc1` registered a melting point of 145 to 147 °C.
To `CCOC(=O)Nc1nnc(S)s1` belongs 205 to 207 °C.
For the compound `Cc1cccc(C(=O)Nc2ccccc2C(=O)O)c1`, the melting point fell in the range of 182 to 186 °C.
`Cc1cc(C(=O)O)ccc1NS(=O)(=O)C(F)(F)F`: the melting point is 203 to 205 °C.
To `NS(=O)(=O)c1ccc(C(=O)O)cn1` belongs 219 to 221 °C.
As to `CC(C)(C)OC(=O)N1CC(O)(c2ccc(F)c(F)c2)C1`, the melting point lay within 69 to 71 °C.
On to `COc1cc(C)cc2c(C)c(C(C)N)oc12` (stereo not given), for which the melting point fell in the range of 56 to 58 °C.
On to `O=C(O)COc1ccc(Cl)c2cccnc12`, for which the melting point lay within 209 to 211 °C.
In turn, `Cc1ccc2sc(-c3ccc(CCl)cc3)nc2c1` returned a melting point of 149 to 151 °C.
With `CCc1ccc(C(=O)O)cc1S(=O)(=O)Cl`, the melting point lay in the range of 181 to 183 °C.
Then `CCc1ccc(C(=O)c2cccc(S(C)(=O)=O)c2)cc1`, with 97 to 99 °C.
As for `NC(=NO)c1ccc(OCc2cccnc2)cc1`, the melting point fell in the range of 165 to 167 °C.
With `Cc1ccoc1-c1nnc(CCl)o1`, the melting point is 49 to 51 °C.
Turning to `Cc1ccccc1C(C)(C)C(=O)O`, the melting point lay in the range of 93 to 95 °C.
In turn, `Cc1ccc(OC(F)F)c(C(=O)CBr)c1` returned a melting point of 55 to 57 °C.
The compound `Ic1ccc(OCc2ccccn2)cc1` displayed a melting point of 74 to 76 °C.
Compound `CC1=NN(Cc2ccc(Cl)cc2Cl)C(=O)C1` returned a melting point of 128 to 130 °C.
Then `Cc1c(CCC(=O)O)c(=O)[nH]c2c1c(=O)[nH]n2C`, with 304 to 306 °C; and `Nc1ccc(N2CCN(S(=O)(=O)C(F)F)CC2)cc1`, with 110 to 112 °C.
Compound `Cc1cc(C)cc(Oc2ccc(CN)cc2C)c1` had a melting point of 56 to 58 °C.
To `O=C1C=CC=NC1=C(O)Nc1cccnc1` belongs 120 to 122 °C; to `Cc1cnn(-c2ccc(S(N)(=O)=O)cc2F)c1`, 189 to 191 °C; to `CC(=O)N(c1nc(/C=C\C(=O)O)cs1)c1ccccc1F`, 195 to 197 °C.
Turning to `CCn1c(C)cs/c1=N\c1ccc(Cl)cc1`, the melting point is 190 to 192 °C.
On to `O=C(O)c1ccc(S(=O)(=O)Nc2ccccc2Oc2ccccc2)cc1`, for which the melting point was 204 to 206 °C.
To `Nc1cc(F)c(F)cc1[N+](=O)[O-]` belongs 107 to 108 °C; to `CS(=O)(=O)c1cccc(C(=O)c2ccc(F)c(F)c2)c1`, 122 to 124 °C.
`Nc1ccc(N2CCCC2=O)cn1` yielded a melting point of 165 to 167 °C.
Then `Cc1nc2nc(Br)ccc2o1`, with 76 to 78 °C.
Then `CNS(=O)(=O)Cc1cc(C)on1`, with 69 to 71 °C; and `CCNC(=O)Nc1cccc([N+](=O)[O-])c1`, with 141 to 143 °C.
`Sc1nnc(NCc2ccco2)s1` came in with a melting point of 124 to 126 °C.
The compound `N#CC(=Cc1ccc2c(c1)OCO2)C(=O)O` gave a melting point of 205 to 207 °C.
Then `Nc1ncon1`, with 104 to 106 °C.
